Consider 1 compound from paper PMC5688156, “The natural product carolacton inhibits folate-dependent C1 metabolism by targeting FolD/MTHFD” (Nature Communications, 2017).

The target of one data set is T1, ecFolD (Escherichia coli, UniProt P24186).
T1 construct: His-tag (TEV-cleavable, vector pHis-TEV); made in house; host or cells: E. coli BL21 (DE3)
As to the kind of experiment: ecFolD dehydrogenase (DH) enzyme assay. In kind it is biochemical, E. coli. The settings on record: for Ki: carolacton inhibition on DH activity, from apparent KM. The procedure:
(6R,S)-5,10-Methylene-5,6,7,8-tetrahydrofolic acid ((6R,S)-5,10-CH2-THF) calcium salt and (6R,S)-5,10-Methenyl-5,6,7,8-tetrahydrofolic acid ((6R,S)-5,10-CH=THF) chloride were purchased from Schircks Laboratories (Bauma, Switzerland) and used as substrates for FolD dehydrogenase and cyclohydrolase enzyme assays, respectively. Only the R-isomer, which accounts for 50% of (6R,S)-5,10-CH2-THF and (6R,S)-5,10-CH=THF, respectively, is used by the enzyme. (6R,S)-5,10-CH2-THF was dissolved in N2-spargeled basic buffer (50 mM Tris-HCl (pH 8.0), 100 mM β-mercaptoethanol) as described by Varshney et al.[25]. (6R,S)-5,10-CH=THF was dissolved in DMSO as a 100 mM stock solution.
Because FolD is a bifunctional enzyme, dehydrogenase and cyclohydrolase activities were determined for FolD enzyme kinetics, respectively. The dehydrogenase activity of FolD was assayed for its substrate 5,10-CH2-THF and cofactor NADP^+ (in the case of MTHFD2, NAD^+ was used as the cofactor) based on monitoring the formation of 5,10-CH=THF, while the cyclohydrolase activity of FolD was determined for its substrate 5,10-CH=THF by monitoring the hydrolysis of […]. The enzyme kinetics for the dehydrogenase activity of all FolDs except hsMTHFD1_DC were determined at 30 °C in 50 mM Tris-HCl (pH 7.5), 30 mM β-mercaptoethanol. The hsMTHFD1_DC dehydrogenase activity was measured in 25 mM MOPS (pH 7.3), 30 mM β-mercaptoethanol at 30 °C. To measure the enzyme kinetic constants for 5,10-CH2-THF, for example in the case of ecFolD, the NADP concentration was fixed at 1 mM and the concentration of 5,10-CH2-THF varied from 5 to 1500 μM (R-isomer). Similarly, to measure the kinetic constants of ecFolD for NADP^+, the concentration of 5,10-CH2-THF (R-isomer) was fixed at 1 mM and the concentration of NADP^+ varied from 10 to 1500 μM. For different FolDs, the varied concentration range of substrates could be different. […] To monitor the formation of 5,10-CH=THF, the absorbance of the reaction mixture was monitored at 350 nm in micro UV cuvettes (BRAND, Essex, Connecticut, USA). The concentration of 5,10-CH=THF produced in the reaction was determined using an extinction co-efficient of 0.0249 μM^−1 cm^−1. […] The consumption of 5,10-CH=THF was measured by recording the absorbance of the reactions at 355 nm using the TECAN Infinite 200 PRO equipped with a monochromator. […] The inhibition constants (K i) of carolacton on FolD were determined by measuring the apparent K m when adding certain amounts of carolacton to the enzyme reactions. […] To compare the inhibition effects of carolacton between the different FolDs, the half maximal inhibitory concentration (IC50) of carolacton on the same amount of enzyme was determined for FolDs involved in this study. […]

The test system of a further data set is E. coli (TolC-deficient). As to the kind of experiment: MIC determination on E. coli (TolC-deficient). In kind it is cell-based, Escherichia coli. The settings on record: 16 h. The method, then:
First, the minimum inhibitory concentration (MIC) of carolacton on the E. coliΔtolC strain was determined. We started to develop the resistant mutants on CASO agar (peptone from casein 15 g/L, peptone from soybean 5 g/L, NaCl 5 g/L and agar 15 g/L; pH 7.3) plates supplemented with 4× the MIC concentration of carolacton (0.5 μg/mL) as selection pressure. Different numbers of E. coliΔtolC cells from 1 × 10^7 to 10^9 were spread on caso agar plates with carolacton. After 7 days, E. coliΔtolC colonies, which were resistant to carolacton, started to form on the agar plates. The mutants picked were inoculated in liquid MHB medium (beef extract 2 g/L, peptone from casein 17.5 g/L and corn starch 1.5 g/L, pH 7.4) supplemented with carolacton.
The determination of MICs was performed as described elsewhere. In brief, E. coli strains were treated with carolacton in serial dilution in either the presence or absence of sub-inhibitory concentrations of polymyxin B nonapeptide (PMBN; 3 µg/mL) and/or phenylalanine–arginine β-napthylamide (PAβN; 20 µg/mL) for 16 h at 37 °C in Mueller–Hinton broth. The MICs were assessed by visual inspection of the plates.

Another data set relates to L929 mouse cells. More on the design: method as in doi:10.1002/ejoc.200901126, PMID 20659313. The settings on record: cited from earlier work.

In brackets after ≈: the same amount, converted by molar mass. Several values for one entry are separate records, joined by “and”; a condition that tells them apart may be missing. Equal entries are not always repeated.

On ecFolD, `CO[C@H](CC(=O)O)[C@@H](C)C(=O)[C@H](C)/C=C(\C)[C@H]1OC(=O)[C@H](O)[C@H](O)/C=C/[C@H](C)CCC[C@@H]1C` [carolacton] registered an IC50 of 0.0155 µM. For the same compound, the Ki was 0.021 µM and 0.0213 µM at ecFolD (Ki (5,10-CH2-THF), competitive vs substrate 5,10-CH2-THF); 0.011 µM and 0.0109 µM at ecFolD (Ki (NADP+), competitive vs cofactor NADP+). For the same compound, the IC80 at ecFolD (read-out: IC80, carolacton inhibition on DH activity) amounted to 0.0522 µM. Also, the MIC in the data set on E. coli (TolC-deficient) (Escherichia coli) stood at 0.13 µg/mL (≈ 0.277 µM); with E. coli (TolC-deficient) (no additive, cation-adjusted Mueller–Hinton broth, 37 °C), 0.125 µg/mL (≈ 0.267 µM). Also, the “acute toxicity to L929 mouse cells” value in the data set with L929 mouse cells was “no acute toxicity”.
